Measurements: patent US20240245675A1, “PROTEIN SECRETION INHIBITORS” (Gate Bioscience, Inc., priority 2021, published 2024)

What follows are molecules tested against PDCD1 Construct (signal peptide + 10 amino acids of Programmed Cell Death Receptor 1 fused to HaloTag-HiBit) (Homo sapiens, UniProt P61619) (assay: HiBit assay, secretion of SP-HaloTag-HiBit fusion protein, PDCD1 construct). Settings: T-REx-293 cells, doxycycline-induced, Nano-Glo HiBiT Extracellular Detection.
Format: cell-based

Chain of PDCD1 Construct (signal peptide + 10 amino acids of Programmed Cell Death Receptor 1 fused to HaloTag-HiBit) (P61619 whole entry, the tested form may be a part): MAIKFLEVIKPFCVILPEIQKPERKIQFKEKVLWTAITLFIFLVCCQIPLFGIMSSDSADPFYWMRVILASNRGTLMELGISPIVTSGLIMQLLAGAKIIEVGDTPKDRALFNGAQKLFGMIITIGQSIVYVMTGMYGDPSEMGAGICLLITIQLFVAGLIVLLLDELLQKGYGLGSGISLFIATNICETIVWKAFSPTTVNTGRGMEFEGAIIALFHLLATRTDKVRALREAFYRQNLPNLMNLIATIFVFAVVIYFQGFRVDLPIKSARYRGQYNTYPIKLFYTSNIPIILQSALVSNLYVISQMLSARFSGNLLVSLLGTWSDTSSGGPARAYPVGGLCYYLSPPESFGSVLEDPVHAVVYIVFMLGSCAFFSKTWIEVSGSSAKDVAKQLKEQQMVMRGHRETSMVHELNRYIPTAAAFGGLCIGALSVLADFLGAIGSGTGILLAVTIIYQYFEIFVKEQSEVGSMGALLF

**Q.** For O=C(Nc1nc(-c2ccccc2)ns1)c1cccn1Cc1ccncc1 [Compound 37], which IC50 is on record?
**A.** The IC50 was under 5 µM.

**Q.** With CC(C)(C)C1CNC(NC(=O)c2cccn2Cc2ccncc2)=N1 (centres unmarked) [Compound 43] as the molecule, how does the IC50 read?
**A.** Its IC50 is under 5 µM.

**Q.** CN1CCN(c2nsc(NC(=O)c3cc(F)cn3Cc3ccncc3)n2)CC1 [Compound 48, 4-fluoro-N-(3-(4-methylpiperazin-1-yl)-1,2,4-thiadiazol-5-yl)-1-(pyridin-4-ylmethyl)-1H-pyrrole-2-carboxamide] was tested. Which IC50 did it give?
**A.** The IC50 was over 30 µM.

**Q.** CC(C)(C)c1nsc(NC(=O)c2cccn2Cc2ccncc2)n1 [Compound 50] was tested. Which IC50 did it give?
**A.** Its IC50 is under 5 µM.

**Q.** With CC(C)OC(C)(C)c1csc(Nc2nccc3ccn(Cc4ccncc4)c23)n1 [Compound 25, 4-(2-isopropoxypropan-2-yl)-N-(1-(pyridin-4-ylmethyl)-1H-pyrrolo[2,3-c]pyridin-7-yl)thiazol-2-amine] as the molecule, how does the IC50 read?
**A.** The IC50 was 5 to 10 µM.

**Q.** Which IC50 does the source give for O=C(Nc1nc(/C=C/c2ccccc2)ns1)c1cc(F)cn1Cc1ccncc1 [Compound 49, (E)-4-fluoro-1-(pyridin-4-ylmethyl)-N-(3-styryl-1,2,4-thiadiazol-5-yl)-1H-pyrrole-2-carboxamide] here?
**A.** The IC50 was under 5 µM.

**Q.** Cc1cccc(Nc2nc(-c3ccc(-c4cccnc4)cc3)cs2)n1 [Compound 38] was tested. Which IC50 did it give?
**A.** The IC50 was over 30 µM.

**Q.** With c1ccc(N2CCC[C@@H]2c2csc(Nc3ncccc3OCc3ccncc3)n2)cc1 [Compound 8, (R)-4-(1-phenylpyrrolidin-2-yl)-N-(3-(pyridin-4-ylmethoxy)pyridin-2-yl)thiazol-2-amine] as the molecule, how does the IC50 read?
**A.** The IC50 was 5 to 10 µM.

**Q.** How did the IC50 turn out when CC(C)OC(C)(C)c1csc(NC(=O)c2nccn2CCc2ccncc2)n1 [Compound 44] was run?
**A.** The IC50 was over 30 µM.

**Q.** With CC(C)OC(C)(C)c1csc(NC(=O)c2ccnn2CCc2ccncc2)n1 [Compound 24, N-(4-(2-isopropoxypropan-2-yl)thiazol-2-yl)-1-(2-(pyridin-4-yl)ethyl)-1H-pyrazole-5-carboxamide] as the molecule, how does the IC50 read?
**A.** The IC50 was over 30 µM.

The molecules below were run against PRP Construct (signal peptide + 10 amino acids of Prion protein fused to HaloTag-HiBit) (Homo sapiens, UniProt P61619) (assay: cell-based). Settings: not given.
Chain of PRP Construct (signal peptide + 10 amino acids of Prion protein fused to HaloTag-HiBit) (P61619 whole entry, looked up, the tested form may be a part): as the sequence (P61619 whole entry, the tested form may be a part) above

**Q.** O=C(NCc1ccncc1)Nc1nc([C@H]2CCCN2c2ccccc2)cs1 [Compound 11, (R)-1-(4-(1-phenylpyrrolidin-2-yl)thiazol-2-yl)-3-(pyridin-4-ylmethyl)urea] was tested. Which IC50 did it give?
**A.** Its IC50 is over 30 µM.

**Q.** Which IC50 does the source give for CC(C)OC(C)(C)c1csc(NC(=O)N(C)Cc2ccncc2)n1 [Compound 19, 3-(4-(2-isopropoxypropan-2-yl)thiazol-2-yl)-1-methyl-1-(pyridin-4-ylmethyl)urea] here?
**A.** Its IC50 is over 30 µM.

**Q.** CC(C)OC(C)(C)c1csc(NC(=O)OCCc2ccncc2)n1 [Compound 21, 2-(pyridin-4-yl)ethyl (4-(2-isopropoxypropan-2-yl)thiazol-2-yl)carbamate] was tested. Which IC50 did it give?
**A.** The IC50 was over 30 µM.

**Q.** How did the IC50 turn out when CC(C)OC(C)(C)c1csc(NC(=O)[C@H](C)OCc2ccncc2)n1 [Compound 15, (S)—N-(4-(2-isopropoxypropan-2-yl)thiazol-2-yl)-2-(pyridin-4-ylmethoxy)propanamide] was run?
**A.** The IC50 was over 30 µM.

**Q.** For O=C(Nc1nc(-c2ccccc2)ns1)c1cccn1Cc1ccncc1 [Compound 37], which IC50 is on record?
**A.** Its IC50 is 5 to 10 µM.

**Q.** With CC(C)OC(C)(C)c1csc(Nc2ccc(C(=O)c3ccccc3)cc2)n1 [Compound 22, (4-((4-(2-isopropoxypropan-2-yl)thiazol-2-yl)amino)phenyl)(phenyl)methanone] as the molecule, how does the IC50 read?
**A.** Its IC50 is over 30 µM.

**Q.** Which IC50 does the source give for CC(C)(C)C1CNC(NC(=O)c2cccn2Cc2ccncc2)=N1 (centres unmarked) [Compound 43] here?
**A.** Its IC50 is 5 to 10 µM.

**Q.** How did the IC50 turn out when CC(C)OC(C)(C)c1csc(NC(=O)N(C)CCc2ccncc2)n1 [Compound 20, 3-(4-(2-isopropoxypropan-2-yl)thiazol-2-yl)-1-methyl-1-(2-(pyridin-4-yl)ethyl)urea] was run?
**A.** Its IC50 is over 30 µM.

**Q.** CN1CCCC1c1csc(Nc2ncccn2)n1 (centres unmarked) [Compound 47] was tested. Which IC50 did it give?
**A.** Its IC50 is over 30 µM.

**Q.** For CC(C)OC(C)(C)c1csc(NC(=O)[C@@H](C)OCc2ccncc2)n1 [Compound 14, (R)—N-(4-(2-isopropoxypropan-2-yl)thiazol-2-yl)-2-(pyridin-4-ylmethoxy)propanamide], which IC50 is on record?
**A.** Its IC50 is over 30 µM.

**Q.** O=C(Nc1ccc(C(=O)c2ccccc2)cc1)Nc1nc([C@H]2CCCN2c2ccccc2)cs1 [Compound 23, (R)-1-(4-benzoylphenyl)-3-(4-(1-phenylpyrrolidin-2-yl)thiazol-2-yl)urea] was tested. Which IC50 did it give?
**A.** The IC50 was over 30 µM.

**Q.** With Cc1ccc(Nc2nc(C3CCCN3C)cs2)nc1 (centres unmarked) [Compound 46] as the molecule, how does the IC50 read?
**A.** The IC50 was over 30 µM.

**Q.** CC(C)OC(C)(C)c1csc(NC(=O)NCc2ccncc2)n1 [Compound 17, 1-(4-(2-isopropoxypropan-2-yl)thiazol-2-yl)-3-(pyridin-4-ylmethyl)urea] was tested. Which IC50 did it give?
**A.** Its IC50 is over 30 µM.

**Q.** O=C(Nc1nc([C@H]2CCCN2c2ccccc2)cs1)OCCc1ccncc1 [Compound 1, 2-(pyridin-4-yl)ethyl (R)-(4-(1-phenylpyrrolidin-2-yl)thiazol-2-yl)carbamate] was tested. Which IC50 did it give?
**A.** Its IC50 is over 30 µM.

**Q.** For CC(C)OC(C)(C)c1csc(Nc2nccc3ccn(Cc4ccncc4)c23)n1 [Compound 25, 4-(2-isopropoxypropan-2-yl)-N-(1-(pyridin-4-ylmethyl)-1H-pyrrolo[2,3-c]pyridin-7-yl)thiazol-2-amine], which IC50 is on record?
**A.** The IC50 was 10 to 30 µM.

**Q.** With CC(C)(C)c1csc(Nc2ncccc2CCc2ccncc2)n1 [Compound 39] as the molecule, how does the IC50 read?
**A.** Its IC50 is 10 to 30 µM.

**Q.** With O=C(CCOc1ccncc1)Nc1nc([C@H]2CCCN2c2ccccc2)cs1 [Compound 2, (R)—N-(4-(1-phenylpyrrolidin-2-yl)thiazol-2-yl)-3-(pyridin-4-yloxy)propanamide] as the molecule, how does the IC50 read?
**A.** Its IC50 is over 30 µM.

**Q.** How did the IC50 turn out when CC(C)OC(C)(C)c1csc(NC(=O)Nc2ccccc2Oc2ccccc2)n1 [Compound 18, 1-(4-(2-isopropoxypropan-2-yl)thiazol-2-yl)-3-(2-phenoxyphenyl)urea] was run?
**A.** Its IC50 is over 30 µM.

**Q.** How did the IC50 turn out when CC(CNc1ccncc1)C(=O)Nc1nc([C@H]2CCCN2c2ccccc2)cs1 (stereo partly drawn) [Compound 7, 2-methyl-N-(4-((R)-1-phenylpyrrolidin-2-yl)thiazol-2-yl)-3-(pyridin-4-ylamino)propanamide] was run?
**A.** The IC50 was 10 to 30 µM.

**Q.** For Cc1ccc(Nc2nc(C3CCCN3Cc3cnc[nH]3)cs2)nc1 (centres unmarked) [Compound 45], which IC50 is on record?
**A.** Its IC50 is over 30 µM.

**Q.** c1ccc(N2CCC[C@@H]2c2csc(Nc3ncccc3OCc3ccncc3)n2)cc1 [Compound 8, (R)-4-(1-phenylpyrrolidin-2-yl)-N-(3-(pyridin-4-ylmethoxy)pyridin-2-yl)thiazol-2-amine] was tested. Which IC50 did it give?
**A.** Its IC50 is under 5 µM.

**Q.** O=C(c1ccccc1)c1ccc(Nc2nc([C@H]3CCCN3c3ccccc3)cs2)cc1 [Compound 13, (R)-phenyl(4-((4-(1-phenylpyrrolidin-2-yl)thiazol-2-yl)amino)phenyl)methanone] was tested. Which IC50 did it give?
**A.** The IC50 was over 30 µM.

**Q.** Which IC50 does the source give for C[C@@H](OCc1ccncc1)C(=O)Nc1nc([C@H]2CCCN2c2ccccc2)cs1 [Compound 4, (R)—N-(4-((R)-1-phenylpyrrolidin-2-yl)thiazol-2-yl)-2-(pyridin-4-ylmethoxy)propanamide] here?
**A.** The IC50 was 10 to 30 µM.

**Q.** CN(CCc1ccncc1)C(=O)Nc1nc([C@H]2CCCN2c2ccccc2)cs1 [Compound 6, (R)-1-methyl-3-(4-(1-phenylpyrrolidin-2-yl)thiazol-2-yl)-1-(2-(pyridin-4-yl)ethyl)urea] was tested. Which IC50 did it give?
**A.** Its IC50 is over 30 µM.

**Q.** With C[C@H](OCc1ccncc1)C(=O)Nc1nc([C@H]2CCCN2c2ccccc2)cs1 [Compound 5, (S)—N-(4-((R)-1-phenylpyrrolidin-2-yl)thiazol-2-yl)-2-(pyridin-4-ylmethoxy)propanamide] as the molecule, how does the IC50 read?
**A.** Its IC50 is 5 to 10 µM.
